Experimental data: the supplement of paper PMC10307832

Tests used:
Test in all cases: relative viability (nuclei count vs DMSO), 5 days (fraction); higher = more cells survive
[1] = compound: C1/C(=C\C2=CC=CS2)/C(=O)/C(=C/C3=CC=CS3)/C1 + CC(=O)c1c(C)c2cnc(Nc3ccc(N4CCNCC4)cn3)nc2n(C2CCCC2)c1=O [Palbociclib] (partner 0.5 µM)
Procedure, shortened: (§1)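 Cells from lung cancer lines were seeded into 1536-well plates and, one day later, dosed by pin tool. Treatments were either a single drug or a fixed dose of an anchor drug with five library-drug doses (not always all listed) in √10 steps. After 5 days, nuclei were stained in a one-step fixation (final 0.05% Triton X-100, 1% formaldehyde, 1 ug/ml Hoechst) and counted on 4× images, and relative viability is the treated-to-vehicle nuclei ratio, as the median of duplicate plates.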

TPCA-1 + Trametinib = compound: C1=CC(=CC=C1C2=CC(=C(S2)NC(=O)N)C(=O)N)F [TPCA-1] + CC(=O)Nc1cccc(-n2c(=O)n(C3CC3)c(=O)c3c(Nc4ccc(I)cc4F)n(C)c(=O)c(C)c32)c1 [Trametinib] (partner 0.02 µM)
Procedure, shortened: as §1

[2] = compound: C[C@]12O[C@H](C[C@]1(O)CO)n1c3ccccc3c3c4c(c5c6ccccc6n2c5c31)CNC4=O [Lestaurtinib] + CCNC(=O)c1noc(-c2cc(C(C)C)c(O)cc2O)c1-c1ccc(CN2CCOCC2)cc1 [Luminespib] (partner 0.01 µM)
Procedure, shortened: as §1

TPCA-1 + Alpelisib = compound: C1=CC(=CC=C1C2=CC(=C(S2)NC(=O)N)C(=O)N)F [TPCA-1] + Cc1nc(NC(=O)N2CCC[C@H]2C(N)=O)sc1-c1ccnc(C(C)(C)C(F)(F)F)c1 [Alpelisib] (partner 2 µM)
Procedure, shortened: as §1

Row | Cell Line | relative viability ([1]; first compound 0.2 µM) | relative viability ([1]; first compound 0.6325 µM) | relative viability ([1]; first compound 2 µM) | relative viability ([1]; first compound 6.325 µM) | relative viability ([1]; first compound 20 µM) | relative viability (TPCA-1 + Trametinib; first compound 0.04 µM) | relative viability (TPCA-1 + Trametinib; first compound 0.1265 µM) | relative viability (TPCA-1 + Trametinib; first compound 0.4 µM) | relative viability (TPCA-1 + Trametinib; first compound 1.265 µM) | relative viability (TPCA-1 + Trametinib; first compound 4 µM) | relative viability ([2]; first compound 0.005 µM) | relative viability ([2]; first compound 0.01581 µM) | relative viability ([2]; first compound 0.05 µM) | relative viability ([2]; first compound 0.1581 µM) | relative viability ([2]; first compound 0.5 µM) | relative viability (TPCA-1 + Alpelisib; first compound 0.04 µM) | relative viability (TPCA-1 + Alpelisib; first compound 0.1265 µM) | relative viability (TPCA-1 + Alpelisib; first compound 0.4 µM) | relative viability (TPCA-1 + Alpelisib; first compound 1.265 µM) | relative viability (TPCA-1 + Alpelisib; first compound 4 µM)
1 | NCI-H1648 | 0.271 | 0.497 | 0.271 | 0.262 | 0.288 | 0.505 | 0.473 | 0.378 | 0.169 | 0.582 | – | – | – | – | – | – | – | – | – | –
2 | NCI-H1623 | – | – | – | – | – | – | – | – | – | – | 0.6 | 0.617 | 0.406 | 0.352 | 0.444 | – | – | – | – | –
3 | NCI-H3122 | 0.178 | 0.175 | 0.172 | 0.201 | 0.171 | 0.228 | 0.177 | 0.228 | 0.243 | 0.215 | 0.114 | 0.116 | 0.115 | 0.0939 | 0.088 | 0.846 | 0.728 | 0.92 | 0.947 | 0.74
4 | NCI-H2347 | 0.381 | 0.454 | 0.449 | 0.398 | 0.413 | 0.26 | 0.316 | 0.276 | 0.266 | 0.252 | 0.501 | 0.661 | 0.404 | 0.246 | 0.297 | 1.14 | 0.969 | 1.03 | 0.817 | 0.917
5 | HCC-44 | 0.984 | 1 | 0.926 | 0.862 | 1.04 | 1.09 | 0.983 | 1.09 | 0.914 | 1.02 | 1.14 | 1.22 | 0.623 | 0.873 | 0.308 | 0.876 | 0.765 | 0.838 | 0.703 | 0.66
6 | HCC-78 | 0.486 | 0.457 | 0.534 | – | 0.451 | 0.837 | 0.677 | 0.722 | 0.78 | 0.519 | – | – | – | – | – | 0.36 | 0.315 | 0.362 | 0.311 | 0.262
7 | COR-L23 | 0.333 | 0.283 | 0.338 | 0.294 | 0.297 | 0.715 | 0.512 | 0.713 | 0.547 | 0.33 | 0.558 | 0.756 | 0.226 | 0.288 | 0.164 | 0.904 | 0.812 | 0.72 | 0.632 | 0.421
8 | NCI-H1993 | 0.643 | 0.639 | 0.595 | 0.562 | 0.646 | 0.545 | 0.563 | 0.563 | 0.423 | 0.425 | 0.692 | 0.442 | 0.831 | 0.523 | 0.569 | 0.654 | – | 0.711 | 0.633 | 0.731
9 | NCI-H2405 | 0.555 | 0.509 | 0.575 | 0.52 | 0.504 | 0.662 | 0.606 | 0.722 | 0.469 | 0.638 | 0.747 | 0.631 | 0.585 | 0.548 | 0.262 | 1.06 | 0.599 | 0.805 | – | 0.605
10 | NCI-H2126 | 0.343 | 0.339 | 0.363 | 0.332 | 0.374 | 0.534 | 0.528 | 0.58 | 0.538 | 0.555 | 0.944 | 0.891 | 0.776 | 0.817 | 0.538 | 0.759 | 0.673 | 0.753 | 0.786 | 0.596
11 | NCI-H1944 | 0.349 | 0.371 | 0.349 | – | 0.317 | 0.423 | 0.373 | 0.426 | 0.355 | 0.294 | 0.716 | 0.784 | 0.773 | 0.54 | 0.302 | 0.859 | 0.799 | 0.815 | 0.744 | 0.658
12 | NCI-H2342 | 0.511 | 0.568 | 0.531 | 0.482 | 0.516 | 0.792 | 0.685 | 0.79 | 0.829 | 0.944 | 0.779 | 0.624 | 0.651 | 0.738 | 0.7 | – | – | – | – | –
13 | ABC-1 | 0.707 | 0.614 | 0.886 | 0.64 | 0.513 | – | – | – | – | – | – | 0.323 | 0.445 | 0.331 | 0.178 | 1.38 | 0.98 | 0.847 | 0.967 | 0.591
14 | NCI-H596 | – | – | – | – | – | 0.801 | 0.78 | 0.74 | 0.884 | 0.658 | 0.959 | 1.12 | 1.03 | 1.27 | 0.953 | 0.545 | 0.485 | 0.442 | 0.428 | 0.345
15 | NCI-H1563 | – | – | – | – | – | – | – | – | – | – | 0.554 | 0.495 | 0.546 | 0.5 | 0.48 | 0.976 | 0.932 | 0.897 | 0.993 | 0.911
16 | HCC-366 | 0.413 | 0.388 | 0.454 | 0.358 | 0.43 | – | 0.323 | 0.331 | 0.312 | 0.24 | – | – | – | – | – | 0.481 | 0.362 | 0.352 | 0.378 | 0.185
17 | NCI-H522 | 0.855 | 1.33 | 1.03 | 0.735 | 0.917 | 0.872 | 0.737 | 0.901 | 0.766 | 0.6 | 1.3 | 1.01 | 1.08 | 1.03 | 0.699 | – | – | – | – | –
18 | SW 900 | 0.578 | 0.524 | 0.616 | 0.451 | 0.653 | – | – | 0.775 | 0.909 | 0.764 | 0.172 | 0.146 | 0.151 | 0.159 | 0.178 | – | – | – | – | –
19 | EBC-1 | – | – | – | – | – | – | – | – | – | – | – | – | – | – | – | 0.843 | 0.77 | 0.892 | 0.933 | 0.626
20 | NCI-H1650 | 0.312 | 0.325 | 0.351 | 0.373 | 0.333 | 0.662 | 0.545 | 0.602 | 0.565 | 0.655 | 0.183 | 0.195 | 0.188 | 0.164 | 0.18 | – | – | – | – | –
21 | IA-LM | – | – | – | – | – | – | – | – | – | – | – | – | – | – | – | 0.912 | 0.619 | 0.729 | 0.892 | 0.677
22 | NCI-H1703 | – | – | – | – | – | – | – | – | – | – | – | – | – | – | – | 0.336 | 0.3 | 0.304 | 0.233 | 0.207
